Source: US4015002A, “1-Aryl-2-oxo-2,4,5,6,7,7a-hexahydro-indoles, salts, pharmaceutical compositions and methods of use” (Laboratoire Roger Bellon, priority 1974, dated 1977)
≈ marks a conversion by molar mass, not a printed value. Entries after “also recorded” stand apart in the source; their conditions may differ. Read-outs that look alike come from different tables or passages of the source.

Columns and labels:
[1] = Toxicity, intravenous in the mouse; conditions: in vivo, i.v.
Description: The toxicities of the various compound were determined intravenously in the mouse.

[2] = system: isolated heart of the rabbit; assay: Cardiac action on the isolated heart of a rabbit (Langendorf preparation); conditions: for EC20: Oryctolagus cuniculus
Description: (§1) This was examined according to known methods in the isolated auricle (Trevan preparation) and in the isolated heart of a rabbit (Langendorf preparation).
In the Langendorf preparation, the action of the compounds was determined from three parameters; the amplitude of contractions, coronary delivery, and rhythm. […] The results are indicated in Table 1; an arrow ↓ indicates a diminution, and an arrow ↑ an augmentation.

platelet aggregation = assay: Platelet aggregation in human blood; type: cell-based
cardiovascular system = assay: Overall action on the cardiovascular system; type: in vivo
Excerpt: Compounds in accordance with the invention have shown a marked action on the cardiovascular system, particularly as coronary and cerebal peripheral vasodilators. Some of the compounds have also shown activity as hypotensives or hypertensives. […] In these tests, aqueous solutions of the salts described in the cited Examples were used.

anaethestized dog = assay: Action on femoral delivery, aortal pressure and cardiac rhythm in the anaesthetized dog; type: in vivo
Description: This was investigated in an anaethestized dog, the compounds under test being administered by intraveneous perfusion (over 5 minutes). The various compounds under test were compared by administering all of them at a dose per kilogram corresponding to 1/10 of the mouse LD50 (I.V.).
Simultaneously were measured: variations of femoral delivery, aortal pressure, and cardiac rhythm. Table II indicates the maximum variations of these different parameters observed over the 30 minutes which followed administration of various compounds. These variations are expressed in percent based on the initial values.

rat = assay: Protection against cerebral isochaemial hypoxy in the rat (clamping of carotid and basilar artery, E.E.G.); type: in vivo; conditions: 5 mg/kg i.v.
Description: The protective effect of the compound of Example 3 with regard to cerebal isochaemal hypoxy is shown for at least 3 hours after injection.

dog = assay: Cardiac isochaemal hypoxy in the dog (Sodi-Pallares preparation); type: in vivo; conditions: i.v. 10 or 25 mg/kg
Description: After ligature of the anterior intraventricular coronary artery (Sodi-Pallares preparation), intravenous administration of 10 or 25 mg/kg of the compound of Example 3, increased the strength of cardiac contractions and the ventricular dp/dt return, which reflects a […] in the contractile state of the myocardial fibres.

[3] = Hygroscopicity of the hydrochloride; type: physicochemical; conditions: hydrochloride salt
isolated auricle = assay: Cardiac action on the isolated auricle (Trevan preparation): amplitude of contractions; conditions: arrows for diminution/increase are drawings, 0 = inactive, read-out: Action on the isolated auricle: minimum concentration producing a variation of 20% in amplitude of contractions
Description: as §1
Cardiac action of the compounds in question was evaluated according to the amplitude of contractions of the isolated auricle.

[4] = direction arrow is a drawing, read-out: Amplitude of contractions: concentration producing a variation of 20%
[5] = i.v. perfusion over 5 min, dose 1/10 of mouse LD50, percent based on initial values

O=C1C=C2CCCCC2N1c1ccc(OCCN2CCOCC2)cc1 (stereo not shown) [Example 3, 1-[4-(2-morpholinoethoxy)-phenyl]-2-oxo-2,4,5,6,7,7a-hexahydro-indole]
LD50 [1]: 225 mg/kg | Coronary delivery (in words) [2]: did not modify coronary rhythm or augment coronary delivery | Coronary rhythm (in words) [2]: did not modify coronary rhythm | EC20 ([2]; augmentation, read-out: Concentration providing an augmentation of 20% in the amplitude of contractions): 10 µg/mL (≈ 29.2 µM) | EC20 [2, 4]: 10 µg/mL (≈ 29.2 µM) | EC20 ([2]; direction arrow is a drawing, read-out: Coronary delivery: concentration producing a variation of 20%): 20 µg/mL (≈ 58.4 µM) | Inhibition of platelet aggregation induced by A.D.P. (platelet aggregation; 1 × 10^-5 (unit not given), A.D.P. 5 mM/l): inhibited platelet aggregation | Inhibition of platelet aggregation induced by collagen (platelet aggregation; 1 × 10^-5 (unit not given), collagen 200 mg/cm^3): inhibited platelet aggregation | Inhibition of platelet aggregation induced by adrenalin (platelet aggregation; 2 × 10^-4 M, adrenalin 2.5 mcM/l): inhibited platelet aggregation | Action on the cardiovascular system (in words) (cardiovascular system; aqueous solutions of the salts): vasodilators, this action being shown on coronary delivery, femoral delivery and vertebral delivery | Cardiac frequency on increase in amplitude of cardiac contractions (in words) (cardiovascular system; in vivo): modified and transitory increase in cardiac frequency | Aortal pressure (in words) (anaethestized dog; anaesthetized dog, i.v.): without modifying aortal pressure; also recorded: without changes in aortal pressure | Cardiac frequency (in words) (anaethestized dog; anaesthetized dog, i.v.): without modifying aortal pressure or cardiac frequency | Vasodilator action (in words) (anaethestized dog; anaesthetized dog, i.v., 1/10 of mouse LD50): clearly vasodilators | Aortal pressure (in words) (anaethestized dog; anaesthetized dog, i.v., listed as Example 4): without changes in aortal pressure | Aortal pressure, maximum variation in 30 minutes (anaethestized dog; [5]): 0% | Protection with regard to cerebral isochaemial hypoxy (rat): marked protecting properties | Delay in the appearance of electrical silence in the E.E.G. (rat; after beginning of clamping): significantly increased | Duration of protective effect with regard to cerebral hypoxy (rat; after injection): at least 3 hours | Delay in normalization of the E.E.G. trace (rat; after removal of the clamps): significantly reduced | Period of electrical silence of the E.E.G. (rat; during clamping and after removal of clamps): significantly reduced | Protection with regard to cardiac isochaemal hypoxy (dog): showed protective properties | Strength of cardiac contractions (dog; after coronary artery ligature): increased | Ventricular dp/dt return (dog; after coronary artery ligature): increased

CN(C)CCOc1ccc(N2C(=O)C=C3CCCCC32)cc1Cl (stereo not shown) [Example 15, 1-[3-chloro-4-(2-dimethylaminoethoxy)-phenyl]-2-oxo-2,4,5,6,7,7a-hexahydro-indole]
LD50 [1]: 15 mg/kg | EC20 [2, 4]: 1 µg/mL (≈ 2.99 µM) | EC20 ([2]; direction arrow is a drawing, read-out: Rhythm: concentration producing a variation of 20%): 1 µg/mL (≈ 2.99 µM) | Hygroscopicity [3]: hygroscopic and absorbed 1/2 mol of water from the air | Aortal pressure, maximum variation in 30 minutes (anaethestized dog; [5]): 0% | Cardiac Rhythm, maximum variation in 30 minutes (anaethestized dog; [5]): 0% | EC20 (isolated auricle): 5 µg/mL (≈ 14.9 µM)
